Literature values as cited in patent US11452288B1, “Innocuous sterilant using hemocyanin and functionalized fullerenes with broad-spectrum intracellular and interstitial microbiocidal and radical scavenging effects for packaged matter, biologics and organics including liquids, gases, tissue, organs, cells, and limbs with copper mediated oxygenation …” (priority 2022, dated 2022).

Columns and labels:
endothelial = conditions: optimal antifungal concentrations in the nutrient media
[1] = tested on: fungal donor rim cultures; conditions: additive to Optisol-GS, compared with Optisol-GS alone

SMILES | endothelial toxicity (endothelial) | rate of positive fungal donor rim cultures [1]
C[C@@H]1[C@H](O)[C@@H](C)/C=C/C=C/C=C/C=C/C=C/C=C/C=C/[C@H](O[C@@H]2O[C@H](C)[C@@H](O)[C@H](N)[C@@H]2O)C[C@@H]2O[C@](O)(C[C@@H](O)C[C@@H](O)[C@H](O)CC[C@@H](O)C[C@@H](O)CC(=O)O[C@H]1C)C[C@H](O)[C@H]2C(=O)O [Amphotericin B] | significant endothelial toxicity | 
C[C@@H](c1ncncc1F)[C@](O)(Cn1cncn1)c1ccc(F)cc1F [voriconazole] |  | significant reduction
